The text below walks through data of paper PMC9011347, “Small-Molecule Inhibitors Targeting Lipolysis in Human Adipocytes” (Journal of the American Chemical Society, 2022).

In this assay the target is T1, human pancreatic lipase (Homo sapiens, UniProt P16233).
T1 construct: purchased MilliporeSigma SRE0028
Put plainly: Activity of purified pancreatic lipase, radiolabeled triolein. It is filed as biochemical. The note with it: NG-497 100 µM. The protocol:
Fig. S3: Investigation of off-target effects of NG-497 on structurally and functionally related lipid hydrolases. (a) PNPLA1-dependent formation of acylceramides was monitored in a cell-based assay in HEK293T cells. Experiments were performed in the presence or absence of NG-497 (40 µM) and the non-selective lipase inhibitor Orlistat (40 µM). Orlistat, but not NG-497, inhibited PNPLA1/CGI-58-dependent ω-O-acylceramide formation. (b-h) Enzymes were overexpressed in Expi293 cells and cell lysates were used as source of enzymatic activity. […] Experiments were performed in the presence or absence of NG-497 (100 µM) and the formation of reaction products was monitored. […]
Data were calculated relative to the basal activity detected in LacZ-transfected controls. […]
LPL activity was inhibited using an anti-LPL antibody. All data are presented as mean ± S.D. Statistical significance was determined via ANOVA followed by Bonferroni post hoc test ( ***, p < 0.001). […]
Released free fatty acids were quantified via NEFA C kit (Fujifilm Wako Chemicals, Neuss, Germany) and release of p-nitrophenol was measured at 405 nm. […] Cellular ω-O-acylceramide formation was monitored using [1-14C]linoleic acid as tracer. […] The activity of purified human pancreatic lipase (MilliporeSigma #SRE0028) was determined as previously described7 in the presence or absence of NG-497 (100µM) or Orlistat (20 µM). […]

Molecules are shown by their SMILES.

T1 sequence (P16233 17-465): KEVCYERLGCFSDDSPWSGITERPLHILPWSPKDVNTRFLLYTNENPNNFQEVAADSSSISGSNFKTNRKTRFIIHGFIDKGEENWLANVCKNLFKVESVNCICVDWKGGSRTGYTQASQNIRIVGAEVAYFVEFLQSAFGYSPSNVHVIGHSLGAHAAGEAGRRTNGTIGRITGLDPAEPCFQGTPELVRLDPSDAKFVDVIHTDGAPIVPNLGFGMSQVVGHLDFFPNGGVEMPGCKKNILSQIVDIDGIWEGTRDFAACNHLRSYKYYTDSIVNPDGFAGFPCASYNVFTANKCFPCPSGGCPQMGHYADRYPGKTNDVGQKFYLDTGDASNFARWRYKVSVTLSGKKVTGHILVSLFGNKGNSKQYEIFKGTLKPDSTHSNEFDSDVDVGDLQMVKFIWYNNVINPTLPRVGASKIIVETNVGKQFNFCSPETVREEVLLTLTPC

Take `CCOc1ccc(-c2cc(OC)cc(C(=O)OC(C)C)n2)cc1` [NG-497]: the “inhibition of pancreatic lipase” value is “did not observe inhibition”.
